Experimental data as given in patent publication US20250099482A1, “TIP60 NEURO-EPIGENETIC MODULATORS” (Drexel University, priority 2023, published 2025).
“Also recorded” adds a separate entry of the source.

How the values were obtained:
GST-Tip60 protein = target: T1, GST-Tip60 protein (Homo sapiens, UniProt Q92993); test: In vitro surface plasma resonance (SPR) Tip60-compound binding; conditions: for Corrected Response: DMSO corrected
T1 construct: purchased Abcam ab2686960
Method: SPR protein-compound binding interactions were analyzed on Biacore 3000 biosensor (Global Cytiva Lifesciences) at 25° C. PBS-P (10 mM Phosphate, 150 mM NaCl, pH 7.4, 0.005% P-20) was used as the running buffer and a HAT-optimized binding buffer (50 mM HEPES, pH 7.4, 500 mM NaCl, 0.05% [v/v] Tween 20, 5 mM DTT, 10% [w/v] glycerol, 2% [v/v] DMSO) was used. A CM5 sensor chip was docked and derivatized by amine coupling to capture anti-GST antibody using freshly prepared 1:1 50 mM NHS (N-hydroxysuccinamide): 200 mM EDC (1-ethyl-3-(3-(dimethylamino) propyl) carbodiimide) followed by immobilization of GST-Tip60 protein (Abcam: ab2686960). Direct binding was determined by injecting ligands in duplicates at concentrations spanning 0.0078 μM to 50 μM with running buffer injections in between. DMSO corrections were performed as described previously. The corrected responses were transformed into % bound sites and plotted against the compound concentration. The concentration of Tip60 on the surface was estimated using [Tip60]=response (captured RU)/100*MW. To plot the % bound isotherm as a function of concentration, it is assumed that binding is 1:1 and the following equation is used: % A bound to B is 100AB/Bt=[Kd+At+Bt-SQRT((Kd+At+Bt)2−4*At*Bt)]/(2*Bt) where A=C and B=Tip60.

[1] = test system: Drosophila Tip60 knockdown model; test: In vivo larval locomotor speed assay in Tip60-RNAi knockdown model; conditions: Tip60-RNAi larvae, compound in fly food, vs DMSO vehicle; for rescue of locomotor ability (larval speed): 10 nM to 100 μM
Tip60 = target: T2, Tip60 (Homo sapiens, UniProt Q92993); test: In vitro histone acetylation activity assay (Tip60); format: biochemical; conditions: for effect on Tip60's HAT activity (Histone H4 acetylation, fluorescence): 20 μM compound, vs Tip60+DMSO
T2 construct: purchased Active Motif 81975
T2 sequence (Q92993 whole entry): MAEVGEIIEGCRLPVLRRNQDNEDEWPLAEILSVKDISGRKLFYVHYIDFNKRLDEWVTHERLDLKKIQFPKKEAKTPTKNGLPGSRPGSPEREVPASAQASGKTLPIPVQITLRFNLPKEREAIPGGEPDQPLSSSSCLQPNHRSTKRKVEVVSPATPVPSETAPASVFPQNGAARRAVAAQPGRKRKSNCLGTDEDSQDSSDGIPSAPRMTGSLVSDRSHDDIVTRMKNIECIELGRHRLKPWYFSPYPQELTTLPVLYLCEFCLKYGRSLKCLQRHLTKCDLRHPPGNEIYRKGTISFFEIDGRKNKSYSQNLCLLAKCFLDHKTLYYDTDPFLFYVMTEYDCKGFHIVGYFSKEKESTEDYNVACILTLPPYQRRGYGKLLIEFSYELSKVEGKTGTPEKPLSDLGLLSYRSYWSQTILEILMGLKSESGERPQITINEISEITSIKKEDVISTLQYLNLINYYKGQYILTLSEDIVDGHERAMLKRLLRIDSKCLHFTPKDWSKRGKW
Method: HAT assays were performed according to manufacturer's instructions in HAT Assay Kit (Active Motif 56100). Briefly, 375 ng Tip60 protein (Active motif: 81975) was incubated with 50 μM Histone H4 peptide, 50 μM Acetyl-CoA and indicated drug concentrations for 30 minutes at room temperature. After stopping the reaction and developing free sulfhydryl groups, […] was recorded at excitation 360-390 nm and emission 460-490 nm using Glomax fluorescence microplate reader. Specific enzyme activity (pmol/min/μg) was calculated by 1. Subtracting background fluorescence from that of assay samples to obtain arbitrary fluorescence units (AFU); and (2) Dividing the difference by the incubation time to obtain AFU/minute. 3. Dividing the AFU/minute by the slope of standard curve in AFU/pmol to obtain the rate in pmol/minute. 4. Dividing pmol/min by the amount of enzyme used to obtain final readings in pmol/minute/μg.

[2] = test system: Drosophila Tip60 knockdown model; test: Larval line crossing / reaching the wall assay in Tip60-RNAi knockdown model; format: in vivo; conditions: 3rd instar Tip60-RNAi larvae, compound in fly food
[3] = test system: Drosophila Alzheimer's disease model (APP); test: Larval line crossing assay in APP Alzheimer's disease model; format: in vivo; conditions: 3rd instar APP larvae, compound in fly food, range of concentrations

T1 sequence (Q92993 whole entry): as above

## CCOc1ccccc1C(=O)Nc1ccc(Cl)c(C(F)(F)F)c1 [CTB, N-(4-chloro-3-(trifluoromethyl)phenyl)-2-ethoxybenzamide]
GST-Tip60 protein; 0.0078 μM
  % Bound sites: 0.05241%
  Subtracted response: 8.34
  Corrected Response: 0.1326
GST-Tip60 protein; 0.023 μM
  % Bound sites: 0.04999%
  Subtracted response: 7.955
  Corrected Response: 0.1265
GST-Tip60 protein; 0.07 μM
  % Bound sites: 0.04921%
  Subtracted response: 7.83
  Corrected Response: 0.1245
GST-Tip60 protein; 0.21 μM
  % Bound sites: 0.04955%
  Subtracted response: 7.885
  Corrected Response: 0.1254
GST-Tip60 protein; 0.63 μM
  % Bound sites: 0.0526%
  Subtracted response: 8.37
  Corrected Response: 0.1331
GST-Tip60 protein; 1.85 μM
  % Bound sites: 0.05923%
  Subtracted response: 9.425
  Corrected Response: 0.1499
GST-Tip60 protein; 5.56 μM
  % Bound sites: 0.07928%
  Subtracted response: 12.615
  Corrected Response: 0.2006
GST-Tip60 protein; 17 μM
  % Bound sites: 0.1511%
  Subtracted response: 24.05
  Corrected Response: 0.3824
GST-Tip60 protein; 50 μM
  % Bound sites: 0.4056%
  Subtracted response: 64.54
  Corrected Response: 1.026
GST-Tip60 protein; SPR, 25° C., read-out: KD (dissociation constant)
  Kd: 28.6 µM
[1]
  rescue of locomotor ability (larval speed): significant rescue for locomotor ability
Tip60; CTB, low micromolar concentrations
  effect on Tip60's HAT activity: directly enhance Tip60's HAT activity

## CCCCCCCCCCCCCCCc1cccc(OCC)c1C(=O)Nc1ccc(Cl)c(C(F)(F)F)c1 [CTPB, N-(4-chloro-3-(trifluoromethyl)phenyl)-2-ethoxy-6-pentadecylbenzamide]
GST-Tip60 protein; 0.0078 μM
  Subtracted response: 8.525
  Corrected Response: 0.1381
GST-Tip60 protein; 0.023 μM
  Subtracted response: 8.62
  Corrected Response: 0.1396
GST-Tip60 protein; 0.07 μM
  Subtracted response: 8.545
  Corrected Response: 0.1384
GST-Tip60 protein; 0.21 μM
  Subtracted response: 8.575
  Corrected Response: 0.1389
GST-Tip60 protein; 0.63 μM
  Subtracted response: 8.99
  Corrected Response: 0.1456
GST-Tip60 protein; 1.85 μM
  Subtracted response: 10.085
  Corrected Response: 0.1634
GST-Tip60 protein; 5.56 μM
  Subtracted response: 13.355
  Corrected Response: 0.2164
GST-Tip60 protein; 17 μM
  Subtracted response: 25.005
  Corrected Response: 0.4051
GST-Tip60 protein; 50 μM
  Subtracted response: 66.335
  Corrected Response: 1.075
[1]
  rescue of locomotor ability (larval speed): significant rescue for locomotor ability

## CCOc1ccccc1C(=O)Nc1ccc(Cl)c(C(F)(F)F)c1 [Compound C1, N-(4-chloro-3-(trifluoromethyl)phenyl)-2-ethoxybenzamide]
[1]
  rescue of locomotor defects (larval speed), performance as compared to CTB: low-performing compounds

## O=C(Nc1ccc(Cl)c(C(F)(F)F)c1)c1ccccc1OC[C@@H]1CCCO1 [Compound C2, (S)-N-(4-chloro-3-(trifluoromethyl)phenyl)-2-((tetrahydrofuran-2-yl)methoxy)benzamide]
[1]
  rescue of locomotor defects (larval speed), performance as compared to CTB: highest performers

## O=C(Nc1ccc(Cl)c(C(F)(F)F)c1)c1ccccc1OC[C@H]1CCCO1 [Compound C3, (R)-N-(4-chloro-3-(trifluoromethyl)phenyl)-2-((tetrahydrofuran-2-yl)methoxy)benzamide]
[1]
  rescue of locomotor defects (larval speed), performance as compared to CTB: low-performing compounds

## O=C(Nc1ccc(Cl)c(C(F)(F)F)c1)c1ccccc1OCC(=O)N1CCOCC1 [Compound C4, N-(4-chloro-3-(trifluoromethyl)phenyl)-2-(2-morpholino-2-oxoethoxy)benzamide]
[1]
  rescue of locomotor defects (larval speed), performance as compared to CTB: did not show an effect even at high concentrations

## CCOc1cccc(OCCN(C)C)c1C(=O)Nc1ccc(Cl)c(C(F)(F)F)c1 [Compound C5, N-(4-chloro-3-(trifluoromethyl)phenyl)-2-(2-(dimethylamino)ethoxy)-6-ethoxybenzamide]
[1]
  rescue of locomotor defects (larval speed), performance as compared to CTB: highest performers

## CC(C)Oc1ccccc1C(=O)Nc1ccc(Cl)c(C(F)(F)F)c1 [Compound C6, N-(4-chloro-3-(trifluoromethyl)phenyl)-2-isopropoxybenzamide]
[1]
  rescue of locomotor defects (larval speed), performance as compared to CTB: low-performing compounds

## O=C(Nc1ccc(Cl)c(C(F)(F)F)c1)c1ccccc1OC[C@@H]1CCCS1(=O)=O [Compound C7, (S)-N-(4-chloro-3-(trifluoromethyl)phenyl)-2-((1,1-dioxidotetrahydrothiophen-2-yl)methoxy)benzamide]
[1]
  rescue of locomotor defects (larval speed), performance as compared to CTB: low-performing compounds

## O=C(Nc1ccc(Cl)c(C(F)(F)F)c1)c1ccccc1OC[C@H]1CCCS1(=O)=O [Compound C8, (R)-N-(4-chloro-3-(trifluoromethyl)phenyl)-2-((1,1-dioxidotetrahydrothiophen-2-yl)methoxy)benzamide]
[1]
  rescue of locomotor defects (larval speed), performance as compared to CTB: highest performers

## CCOCC[C@H](O)COc1ccccc1C(=O)Nc1ccc(Cl)c(C(F)(F)F)c1 [Compound C9, (S)-N-(4-chloro-3-(trifluoromethyl)phenyl)-2-(4-ethoxy-2-hydroxybutoxy)benzamide]
[1]
  rescue of locomotor defects (larval speed), performance as compared to CTB: low-performing compounds

## CCOCC[C@@H](O)COc1ccccc1C(=O)Nc1ccc(Cl)c(C(F)(F)F)c1 [Compound C10, (R)-N-(4-chloro-3-(trifluoromethyl)phenyl)-2-(4-ethoxy-2-hydroxybutoxy)benzamide]
[1]
  rescue of locomotor defects (larval speed), performance as compared to CTB: low-performing compounds

## CCOc1ccccc1C(=O)Nc1cnn(Cc2ccc(C)cc2)c1 [Compound P6, 2-ethoxy-N-(1-(4-methylbenzyl)-1H-pyrazol-4-yl)benzamide]
Tip60
  effect on Tip60's HAT activity (Histone H4 acetylation, fluorescence): enhanced Tip60's HAT activity; also recorded: highest level of Tip60 HAT activation
[2]
  rescue of Tip60 knockdown induced locomotion deficits (line crossing in 30 seconds): rescue locomotor speed defect; also recorded: inconsistent rescue results
[3]
  rescue of AD associated locomotion defects (line crossing, reaching wall): high rescue overall, its action was inconsistent

## COc1ccc(NCc2c(OCc3ccc(F)cc3)ccc3ccccc23)cc1Cl [Compound P9, 3-chloro-N-((2-((4-fluorobenzyl)oxy)naphthalen-1-yl)methyl)-4-methoxyaniline]
Tip60
  effect on Tip60's HAT activity (Histone H4 acetylation, fluorescence): enhanced Tip60's HAT activity

## O=C(NCc1ccccc1Cn1cncn1)c1cn(Cc2ccccc2)c2ccccc12 [Compound P11, N-(2-((1H-1,2,4-triazol-1-yl)methyl)benzyl)-1-benzyl-1H-indole-3-carboxamide]
Tip60
  effect on Tip60's HAT activity (Histone H4 acetylation, fluorescence): enhanced Tip60's HAT activity

## Cc1cc(-c2ccccc2)cc(C(=O)NNS(=O)(=O)c2ccccc2)c1F [WM8014, N′-(4-fluoro-5-methyl-[1,1′-bipheny1]-3-carbonyl)benzenesulfonohydrazide]
GST-Tip60 protein; 0.0078 μM
  Subtracted response: 8.58
  Corrected Response: 0.127
GST-Tip60 protein; 0.023 μM
  Subtracted response: 7.78
  Corrected Response: 0.1151
GST-Tip60 protein; 0.07 μM
  Subtracted response: 7.42
  Corrected Response: 0.1098
GST-Tip60 protein; 0.21 μM
  Subtracted response: 7.24
  Corrected Response: 0.1072
GST-Tip60 protein; 0.63 μM
  Subtracted response: 7.51
  Corrected Response: 0.1111
GST-Tip60 protein; 1.85 μM
  Subtracted response: 8.17
  Corrected Response: 0.1209
GST-Tip60 protein; 5.56 μM
  Subtracted response: 11.34
  Corrected Response: 0.1678
GST-Tip60 protein; 17 μM
  Subtracted response: 22.255
  Corrected Response: 0.3294
GST-Tip60 protein; 50 μM
  Subtracted response: 61.705
  Corrected Response: 0.9132
